≈ marks a conversion by molar mass, not a printed value.
Tests used:
Type in all cases: physicochemical
[1] = Thermodynamic solubility determination in buffers (HPLC)
Description: No clear solubility advantage of the salts was noted over Compound A free base.

[2] = 7-day stability assessment (appearance, HPLC, XRPD)
Protocol: The material was gently ground to release any agglomerates and loaded onto a multi-well plate with Kapton or Mylar polymer film to support the sample. […] Data were visualized and images generated using the HighScore Plus 4.7 desktop application (PANalytical, 2θ17).
They all remained white or off-white solids. • XRPD analysis determined the patterns were retained.

[3] = Heating experiment of Compound A free base Pattern 1 (1H NMR after heating to 250° C.); conditions: heated to 250° C. using the TG/DSC
[4] = Competitive slurry experiments of free base Patterns 1, 2 and 6 (XRPD); conditions: slurries of Patterns 1, 2 and 6; ambient or 40° C.
Protocol: XRPD analysis of the second set of competitive slurry experiments was carried out on a Philips X'Pert Pro Multipurpose diffractometer equipped with a spinning stage autosampler. The samples were scanned between 5 and 34.997 °2θ using Cu K radiation (α1γ=1.54060 Å; α2=1.54443 Å; β=1.39225 Å; α1:α2 ratio=0.5) running in Bragg-Brentano geometry (step size 0.008 °2θ, step time 10.160 s, rotation period 2 s) using 40 kV/40 mA generator settings. Data were visualized and images generated using the HighScore Plus 4.7 desktop application (PANalytical, 2θ17).
• Eight samples were prepared containing 10 mg of free base Patterns 1, 2, and 6. • The appropriate solvent systems were added and observations were noted. • After shaking at either ambient or 40° C., observations were noted and the samples were filtered centrifugally. The solids obtained were analyzed by XRPD.
• Due to inconclusive results, the solids were returned to the sample vials and 100 μL of the appropriate solvent was added to each sample. The samples were then capped and sealed by parafilm and shaken at ambient or 40° C. as before. • After shaking for 72 hours, the solids were analyzed by XRPD. […]

[5] = Dynamic vapour sorption (DVS) with XRPD of retained solid
Protocol: 10-20 mg of sample was placed into a mesh vapour sorption balance pan and loaded into a DVS-1 dynamic vapour sorption balance by Surface Measurement Systems. The sample was subjected to a ramping profile from 40-90% relative humidity (RH) at 10% increments, maintaining the sample at each step until a stable weight had been achieved (dm/dt 0.004%, minimum step length 30 minutes, maximum step length 500 minutes) at 25° C. After completion of the sorption cycle, the sample was dried using the same procedure to 0% RH and then a second sorption cycle back to 40% RH. Two cycles were performed. The weight change during the sorption/desorption cycles were plotted, allowing for the hygroscopic nature of the sample to be determined. XRPD analysis was then carried out on any solid retained.

[6] = Buffer pH 1.2, 25° C., cf concentration of free base, listed as Compound A Free Base Pattern 1
[7] = Buffer pH 3.0, 25° C., LOQ 0.00025 mg/mL
[8] = buffer, 25 °C, pH 4, aqueous buffer, thermodynamic from solid, Buffer pH 4.0, LOQ 0.00025 mg/mL
[9] = 7 days at 40° C./75% RH (open vial)
[10] = 7 days at Ambient light (closed vial)

In the case of `COc1cc(O[C@H]2C(C)(C)[C@H](NC(=O)c3ccc(N4CCC(CN5CCN(c6ccc(C(=O)N[C@H]7CCC(=O)NC7=O)c(F)c6)CC5)CC4)cc3)C2(C)C)ccc1C#N` [free base Pattern 1], the “0 Hr Solubility” value [1, 6] is reported as 0.1 µg/mL, the “4 Hr Solubility” value [1, 6] is reported as 26.2 µg/mL and the “24 Hr Solubility” value [1, 6] is reported as 69.3 µg/mL. For the same compound, the “0 Hr Solubility” value [1, 7] was <0.25 µg/mL, the “4 Hr Solubility” value [1, 7] was <0.25 µg/mL and the “24 Hr Solubility” value [1, 7] was <0.25 µg/mL. For the same compound, the solubility at 0 h [1, 8] was < 0.25 µg/mL, the solubility at 4 h [1, 8] was < 0.25 µg/mL and the solubility at 24 h [1, 8] was < 0.25 µg/mL. The thermodynamic solubility ([1]; pH 1.2, after 24 hours, 25° C., as concentration of Compound A free base) was 69.3 µg/mL (≈ 85.8 µM), the HPLC purity [2, 9] was 99.00 % relative area and the “XRPD after stability storage” value [2, 9] was “No change”. The HPLC purity ([2]; 7 days at 40° C./75% RH (open vial), listed as Free base Pattern 1) was 99.00 % relative area, the HPLC purity ([2]; 7 days at 80° C. (closed vial)) was 99.03 % relative area and the “XRPD after stability storage” value ([2]; 7 days at 80° C. (closed vial)) was “No change”. For the same compound, the HPLC purity ([2]; 7 days at 80° C. (closed vial), listed as Free base Pattern 1) was 99.03 % relative area, the HPLC purity [2, 10] was 99.07 % relative area and the “XRPD after stability storage” value [2, 10] was “No change”. For the same compound, the HPLC purity ([2]; 7 days at Ambient light (closed vial), listed as Free base Pattern 1) was 99.07 % relative area, the “Total impurities (HPLC)” value ([2]; after 7 days at 40° C./75% RH) was 1.00 Rel. Area % and the “purity retained after stability storage (HPLC)” value ([2]; after 7 days at 40° C./75% RH (open vial), 80° C. (closed vial), ambient light (closed vial)) was > 99 % relative area. The “Total impurities (HPLC)” value ([2]; after 7 days at 80° C.) was 0.97 Rel. Area %, the “Total impurities (HPLC)” value ([2]; after 7 days at ambient) was 0.93 Rel. Area % and the “Total impurities (HPLC)” value ([2]; before stability testing) was 0.99 Rel. Area %. For the same compound, the HPLC purity ([2]; before stability testing (condition N/A)) was 99.01 % relative area, the HPLC purity ([2]; before stability testing (condition N/A), listed as Free base Pattern 1) was 99.01 % relative area and the “degradation after heating (1H NMR)” value [3] was “had not degraded”. For the same compound, the “relative stability of forms (competitive slurry)” value [4] was “thermodynamic form”, the DVS hygroscopicity [5] was “Slightly hygroscopic” and the “Form change after DVS” value [5] was “No”. For the same compound, the “form by XRPD post DVS” value [5] was “no form change”, the “hygroscopic nature (DVS)” value ([5]; 25° C.) was “slightly hygroscopic” and the “mass uptake of water (DVS)” value ([5]; RH not stated at the place) was 1.17 wt. %. The “mass uptake of water (DVS), equivalents” value ([5]; RH not stated at the place) was 0.53 eq, the DVS water uptake ([5]; at 90% RH) was 1.17 wt. % and the “DVS water uptake (equivalents of water)” value ([5]; at 90% RH) was 0.53 eq.

Source: US20240336566A1, “CRYSTALLINE FORMS OF A COMPOUND FOR THE TARGETED DEGRADATION OF THE ANDROGEN RECEPTOR” (Arvinas Operations, Inc., priority 2023, published 2024)
